Reference: publication PMC10220285, “Development of an assay pipeline for the discovery of novel small molecule inhibitors of human glutathione peroxidases GPX1 and GPX4” (Redox Biology, 2023)

Assays:
Assay type in all cases: biochemical
Conditions in all cases: Fig. 9 pan-selenoprotein inhibitors
[1] = biological target: T1, GR (glutathione reductase) (Homo sapiens, UniProt P00390); test: GR counter-assay
T1 construct: made in house
T1 sequence (P00390 44-522): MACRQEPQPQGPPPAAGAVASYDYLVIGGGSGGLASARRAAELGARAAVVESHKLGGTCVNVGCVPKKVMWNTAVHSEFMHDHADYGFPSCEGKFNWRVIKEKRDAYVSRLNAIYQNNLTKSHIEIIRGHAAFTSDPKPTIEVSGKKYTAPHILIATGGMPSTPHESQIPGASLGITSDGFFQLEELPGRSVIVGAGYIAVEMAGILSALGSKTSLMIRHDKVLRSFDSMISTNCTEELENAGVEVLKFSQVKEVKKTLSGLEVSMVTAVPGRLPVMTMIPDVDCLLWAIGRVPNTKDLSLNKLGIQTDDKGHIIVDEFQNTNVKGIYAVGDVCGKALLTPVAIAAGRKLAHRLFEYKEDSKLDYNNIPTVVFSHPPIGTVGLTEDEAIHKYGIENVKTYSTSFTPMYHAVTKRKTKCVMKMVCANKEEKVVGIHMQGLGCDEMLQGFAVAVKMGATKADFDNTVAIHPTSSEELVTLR
Procedure: (§1) The compound plates were prepared as described previously. Purified recombinant human GPX1, GPX2, GPX4, GR, and TXNRD1 were produced and purified as previously reported [[48], [49], [50]]. As production of GPX2 was not optimized at the onset of screening, only GPX1 and GPX4 underwent library screening, and GPX2 was used as a follow-up.
(§2) Follow-up and orthogonal assays were run in quadruplicate unless otherwise stated. Assay schemes are illustrated in Fig. 1.
To identify false positive compounds that interfere with the primary assay through inhibition of GR, ‘hits’ from the primary screening were run against a GR counter assay to identify this possible off-target inhibition (Fig. 1C). Briefly, 3 μL enzyme mixture (100 nM GR, 0.01% BSA in TES buffer) was dispensed into columns […] of a 1536-well black medium-binding solid-bottom plates. The no-enzyme control (0.01% BSA in TES buffer) was included in column 1 and 2. Compounds and controls (23 nL) were added to each well with a pin tool (Kalypsys), and the plates were incubated for 30 min before 2 μL of substrate mixture (1 mM GSSG 0.4 mM NADPH in TES buffer) was added to each well and absorbance at 340 nm was measured at t = 0 and t = 20 min using a ViewLux Multimodal detector (PerkinElmer).
(§3) Percent activity was determined by first calculating delta RFU (decrease in fluorescence between t = 0 and t = 20/30 min in primary GPX, GR counter-screen, and TXNRD1 assays, or increase in fluorescence between t = 0 and t = 20 min in the Monobromobimane GPX endpoint assay), and normalizing enzyme activity using median delta RFU values for DMSO-treated enzyme control, and DMSO-treated no-enzyme controls.
(§4) Compound inhibitory activity in the qHTS assays was determined by plotting dose-response data for each sample and fitting with a four-parameter logistic fit to assess IC50 values, efficacy (maximal response), and AUC (area under the curve), as previously described. Hits were classified by the quality of the concentration-response curves (CRC). Curve classes −1.1 and −1.2 being the highest-confidence actives with complete CRCs and classes −2.1 and −2.2 being lower-confidence actives with incomplete CRCs.

GPX1 = biological target: T2, GPX1 (Homo sapiens, UniProt P07203); test: GR-coupled GPX1 activity assay (NADPH fluorescence, CHP substrate)
T2 construct: made in house; host or cells: E. coli
T2 sequence (P07203 1-203): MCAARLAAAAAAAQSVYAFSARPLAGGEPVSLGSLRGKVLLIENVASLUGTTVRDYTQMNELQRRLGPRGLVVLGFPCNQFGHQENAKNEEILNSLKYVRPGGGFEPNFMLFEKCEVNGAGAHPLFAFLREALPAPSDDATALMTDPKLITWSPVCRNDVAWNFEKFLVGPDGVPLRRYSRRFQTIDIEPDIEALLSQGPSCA
Procedure: as §1, §2
(§5) To measure GPX activity, assays were performed in 1536-well format in black medium-binding solid-bottom plates (Greiner). These assay conditions were optimized for high-throughput screening from an assay first described by Paglia and Valentine. GPX activity is measured indirectly by coupling the reaction with GR whereby GPX reduces hydroperoxide by oxidizing two GSH to GSSG and the oxidized glutathione is recycled to its reduced state by GR and NADPH (Fig. 1B). The rate of consumption of NADPH is directly proportional to the activity of GPX and can be measured by the decrease in fluorescence at 340 nm/450 nm.
(§6) First, 3 μL of enzyme in TES assay buffer (50 mM Tris-HCl, 2 mM EDTA (pH 7.5), 150 mM NaCl with enzyme [10 nM GPX1, 200 nM GPX4 ] and BSA [0.01%]) was added to columns 3–48 of 1536-well plates using a BioRAPTR Flying Reagent Dispenser (Let's Go Robotics (LGR), Carlsbad, CA). A no-enzyme control (0.01% BSA in TES assay buffer) was added to columns 1–2. Compounds (25 nL, library and DMSO controls) were added to each well with a pin tool (Kalypsys), and the plates were incubated for 30 min at room temperature before 1 μL of master mix (100 nM GR, 1 mM GSH, 0.5 mM NADPH in TES buffer) was added. 1 μL of cumene hydroperoxide (CHP) ([0.5 mM] in 50% EtOH) was then added within 5 min to initiate the reaction. Fluorescence at 340/450 nm was measured using a ViewLux multimodal detector (PerkinElmer, Waltham, MA) at initial t = 0 and endpoint t = 15 min (GPX1) or t = 20 min (GPX4).
(§7) Follow-up confirmation assays were also run in 96-well format using medium binding clear 96-well SpectraPlate microplates (PerkinElmer) and NADPH absorbance at 340 nm was measured every 30 s for 30 min using an Infinite® M Nano (Tecan).
as §3, §4

human GPX2 = biological target: T3, human GPX2 (Homo sapiens, UniProt P18283); test: GPX2 activity assay (follow-up isoform specificity)
T3 construct: made in house
T3 sequence (P18283 1-190): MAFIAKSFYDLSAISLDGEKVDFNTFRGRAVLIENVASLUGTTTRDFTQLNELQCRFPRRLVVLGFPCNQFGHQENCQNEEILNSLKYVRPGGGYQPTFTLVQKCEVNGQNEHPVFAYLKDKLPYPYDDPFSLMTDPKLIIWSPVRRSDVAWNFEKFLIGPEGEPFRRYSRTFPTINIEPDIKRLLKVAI
Procedure: as §1, §2
Previous work has shown similarities in the substrate specificities of GPX1 and GPX2, and a more unique substrate profile of GPX4 [8].
The GPX2 isoform of human selenoprotein GPXs is found in epithelial cells and has similar substrate specificity with GPX1, but not as much with GPX4 [8]. Additionally, GPX1 and GPX2 both form homotetramers and share similarities in structural homology, although GPX2 has a much slower turnover rate.

GPX4 = biological target: T4, GPX4 (Homo sapiens, UniProt P36969); test: GR-coupled GPX4 activity assay (NADPH fluorescence, CHP substrate)
T4 construct: made in house; host or cells: E. coli
T4 sequence (P36969 1-170 isoform P36969-2): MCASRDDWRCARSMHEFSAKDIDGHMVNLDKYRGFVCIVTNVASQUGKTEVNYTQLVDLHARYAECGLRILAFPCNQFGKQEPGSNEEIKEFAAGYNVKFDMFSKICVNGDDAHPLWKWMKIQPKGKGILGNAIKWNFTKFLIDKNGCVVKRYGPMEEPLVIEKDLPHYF
Procedure: as §1, §2, §5, §6, §7, §3, §4

human TXNRD1 = biological target: T5, human TXNRD1 (Homo sapiens, UniProt Q16881); test: Thioredoxin reductase 1 (TXNRD1) inhibition assay (selenite reduction)
T5 construct: made in house
T5 sequence (Q16881 1-499 isoform Q16881-5): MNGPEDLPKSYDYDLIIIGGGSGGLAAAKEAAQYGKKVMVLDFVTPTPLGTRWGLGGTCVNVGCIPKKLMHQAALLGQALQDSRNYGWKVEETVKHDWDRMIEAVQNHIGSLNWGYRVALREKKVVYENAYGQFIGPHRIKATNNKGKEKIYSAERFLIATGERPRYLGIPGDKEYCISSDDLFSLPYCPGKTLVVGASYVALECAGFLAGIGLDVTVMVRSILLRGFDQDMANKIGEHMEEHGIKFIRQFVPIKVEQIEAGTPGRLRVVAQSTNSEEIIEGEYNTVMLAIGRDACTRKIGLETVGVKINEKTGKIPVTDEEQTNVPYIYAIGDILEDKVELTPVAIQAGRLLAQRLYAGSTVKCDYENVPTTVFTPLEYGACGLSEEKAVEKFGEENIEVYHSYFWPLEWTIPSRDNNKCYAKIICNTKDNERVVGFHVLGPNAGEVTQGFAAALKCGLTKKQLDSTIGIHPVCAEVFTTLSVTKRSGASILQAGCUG
Procedure: as §1, §2
TXNRD1 activity was assessed using a modified 1536-well TXNRD1 inhibition assay, based upon TXNRD1-catalyzed selenite reduction as previously described (Fig. 1D). […] TE buffer was dispensed into column 1 and 2 as a no-enzyme control. Finally, 1 μL of sodium selenite in TE buffer was dispensed into each well for final concentrations of 90 nM hTXNRD1, 0.4 mM NADPH, and 0.4 mM sodium selenite. The plate was read in a Viewlux multimodal detector in kinetic mode and fluorescence at 340 nm/450 nm was measured every minute for 8 min.
as §3, §4

CC(OC(=O)OC1CCCCC1)OC(=O)C1=C(CSc2nnnn2CCN(C)C)CS[C@@H]2[C@H](NC(=O)Cc3csc(N)n3)C(=O)N12 (some centres unmarked) [SCE-2174]
inhibition of GR [1]: not GR
inhibition of GPX1 (GPX1): inhibited all tested selenoproteins
inhibition of GPX2 (human GPX2): inhibited all tested selenoproteins
inhibition of GPX4 (GPX4): inhibited all tested selenoproteins
inhibition of TXNRD1 (human TXNRD1): inhibited all tested selenoproteins
